Activity calls are given as the source filed them. The rule behind the calls is not given here.
Tested on: GENE-TOX genotoxicity assays, various organisms and cells
Test: GENE-TOX mutagenicity studies
Settings: for call: Assay Type: In vivo carcinogenicity studies
[1] = Species/Cell Type: Fischer rat embryo (RLV/1706) cells, Assay Type: Cell transformation, viral enhanced, Assay Code: CTR+, Evaluation Type: Evaluation A (Pre-1980)
[2] = Species/Cell Type: Mouse, Sex: Male, Assay Type: Sperm morphology, Assay Code: SPI-, Evaluation Type: Evaluation A (Pre-1980)
[3] = Species/Cell Type: Nonhuman, Assay Code: CCG+, Evaluation Type: Evaluation A (Pre-1980)
[4] = Species/Cell Type: Salmonella typhimurium (one or more of the five standard strains: TA98, TA100, TA1535, TA1537, and TA1538), Assay Type: Histidine reverse gene mutation, Ames assay, Assay Code: SAL-, Evaluation Type: Evaluation A (Pre-1980)
[5] = Species/Cell Type: Nonhuman, Assay Code: CCG-L, Evaluation Type: Evaluation A (Pre-1980)
[6] = Species/Cell Type: Saccharomyces cerevisiae, Assay Type: Mitotic recombination or gene conversion, Assay Code: YEH-, Evaluation Type: Evaluation A (Pre-1980)
[7] = Species/Cell Type: Drosophila melanogaster, Assay Type: Sex-linked recessive lethal gene mutation, Assay Code: SRLT, Evaluation Type: Evaluation A (Pre-1980)
[8] = Species/Cell Type: Salmonella typhimurium (one or more of the five standard strains: TA98, TA100, TA1535, TA1537, and TA1538), Assay Type: Histidine reverse gene mutation, Ames assay, Assay Code: SAL+*, Activation: With metabolic activation, Evaluation Type: Evaluation A (Pre-1980)
[9] = Species/Cell Type: Saccharomyces cerevisiae, Assay Type: Forward gene mutation, Assay Code: YEF-, Evaluation Type: Evaluation A (Pre-1980)
[10] = Species/Cell Type: Saccharomyces cerevisiae, Assay Type: Mitotic recombination or gene conversion, Assay Code: YEC-, Evaluation Type: Evaluation A (Pre-1980)
[11] = Species/Cell Type: Allium cepa, Assay Type: Chromosome aberrations, Assay Code: ALC+D, Dose Response: With dose response, Evaluation Type: Evaluation A (Pre-1980)
[12] = Species/Cell Type: Salmonella typhimurium (one or more of the five standard strains: TA98, TA100, TA1535, TA1537, and TA1538), Assay Type: Histidine reverse gene mutation, Ames assay, Assay Code: SALT, Evaluation Type: Evaluation A (Pre-1980)

CCOC(N)=O
mutagenic call (Species/Cell Type: Drosophila melanogaster, Assay Type: Aneuploidy, sex chromosome gain, chromosome aberrations, Assay Code: DAG-M, Evaluation Type: Evaluation A (Pre-1980)): inactive; negative
mutagenic call (Species/Cell Type: Drosophila melanogaster, Assay Type: Aneuploidy, whole sex chromosome loss, chromosome aberrations, Assay Code: DAC+M, Evaluation Type: Evaluation A (Pre-1980)): active; positive
mutagenic call (Species/Cell Type: Drosophila melanogaster, Assay Type: Sex-linked recessive lethal gene mutation, Assay Code: SRL+, Evaluation Type: Evaluation A (Pre-1980)): active; positive
mutagenic call (Species/Cell Type: Drosophila melanogaster, Sex: Male, Assay Type: Heritable translocation test, chromosome aberrations, Assay Code: DHT+, Evaluation Type: Evaluation A (Pre-1980)): active; positive
mutagenic call (Species/Cell Type: Escherichia coli WP2, Assay Type: Tryptophan reverse gene mutation, Assay Code: WP2-, Evaluation Type: Evaluation A (Pre-1980)): inactive; negative
mutagenic call (Species/Cell Type: Escherichia coli polA (W3110 vs P3478), Assay Type: Rec-assay, DNA effects (bacterial DNA repair), Assay Code: RE2-, Evaluation Type: Evaluation A (Pre-1980)): inactive; negative
mutagenic call (Species/Cell Type: Escherichia coli polA (W3119 vs P3478), Assay Type: Rec-assay, DNA effects (bacterial DNA repair), Assay Code: RE1T, Evaluation Type: Evaluation A (Pre-1980)): no conclusion
mutagenic call [1]: active; positive
mutagenic call (Species/Cell Type: Human diploid fibroblasts, Assay Type: Unscheduled DNA synthesis (UDS) in vitro, DNA effects, Assay Code: UDHT, Evaluation Type: Evaluation A (Pre-1980)): no conclusion
mutagenic call (Species/Cell Type: Human lymphocytes, Assay Type: Sister-chromatid exchange (SCE) in vitro, Assay Code: SCL+D, Dose Response: With dose response, Evaluation Type: Evaluation B (Post-1980)): active; positive
mutagenic call (Species/Cell Type: Human, Assay Type: Sister-chromatid exchange (SCE) in vitro, Assay Code: SC1+D, Dose Response: With dose response, Evaluation Type: Evaluation B (Post-1980)): active; positive
mutagenic call (Species/Cell Type: Mammalian polychromatic erythrocytes, Assay Type: Micronucleus test, chromosome aberrations, Assay Code: MNT+, Evaluation Type: Evaluation A (Pre-1980)): active; positive
mutagenic call (Species/Cell Type: Mouse embryo (AKR/ME) cells, Assay Type: Cell transformation, Assay Code: CTK+, Evaluation Type: Evaluation A (Pre-1980)): active; positive
mutagenic call [2]: inactive; negative
mutagenic call (Species/Cell Type: Neurospora crassa, Assay Type: Reverse gene mutation, Assay Code: NER+, Evaluation Type: Evaluation A (Pre-1980)): active; positive
call [3]: active; positive
mutagenic call (Species/Cell Type: Nonhuman, Assay Type: Sister-chromatid exchange (SCE) in vitro, Assay Code: SC2+D, Dose Response: With dose response, Evaluation Type: Evaluation A (Pre-1980)): active; positive
mutagenic call (Species/Cell Type: Nonhuman, Assay Type: Sister-chromatid exchange (SCE) in vivo, Assay Code: SC3+D, Dose Response: With dose response, Evaluation Type: Evaluation B (Post-1980)): active; positive
mutagenic call (Species/Cell Type: Saccharomyces cerevisiae, Assay Type: Mitotic recombination or gene conversion, Assay Code: YEC+, Evaluation Type: Evaluation A (Pre-1980)): active; positive
mutagenic call (Species/Cell Type: Saccharomyces cerevisiae, Assay Type: Mitotic recombination or gene conversion, Assay Code: YEH-*, Activation: With metabolic activation, Evaluation Type: Evaluation A (Pre-1980)): inactive; negative
mutagenic call [4]: inactive; negative
mutagenic call (Species/Cell Type: Salmonella typhimurium, Assay Type: Forward and reverse gene mutation, host-mediated assay, Assay Code: HMA-, Evaluation Type: Evaluation A (Pre-1980)): inactive; negative
mutagenic call (Species/Cell Type: Syrian hamster embryo (SHE) cells, Assay Type: Cell transformation, clonal assay, Assay Code: CTC+*, Activation: With metabolic activation, Evaluation Type: Evaluation A (Pre-1980)): active; positive

CC1=NN(c2ccccc2)C(=O)C1
call [5]: inactive; negative

C(=C\c1ccccc1)/c1ccccc1
mutagenic call [4]: inactive; negative

CCNC(=O)[C@@H]1CCCN1C(=O)[C@H](CCCN=C(N)N)NC(=O)[C@H](CC(C)C)NC(=O)[C@@H](Cc1c[nH]c2ccccc12)NC(=O)[C@H](Cc1ccc(O)cc1)NC(=O)[C@H](CO)NC(=O)[C@H](Cc1c[nH]c2ccccc12)NC(=O)[C@H](Cc1cnc[nH]1)NC(=O)[C@@H]1CCC(=O)N1
mutagenic call (Species/Cell Type: Human, Sex: Male, Assay Type: Sperm morphology, Assay Code: SPH+, Evaluation Type: Evaluation A (Pre-1980)): active; positive

O=c1[nH]cc(Br)c(=O)[nH]1
mutagenic call (Species/Cell Type: Hordeum vulgare (barley), Assay Type: Gene mutation, Assay Code: HOM+D, Dose Response: With dose response, Evaluation Type: Evaluation A (Pre-1980)): active; positive
mutagenic call [6]: inactive; negative
mutagenic call (Species/Cell Type: Vicia faba, Assay Type: Chromosome aberrations, Assay Code: VIC+, Evaluation Type: Evaluation A (Pre-1980)): active; positive

NC(=S)NCCNC(N)=S
mutagenic call (Species/Cell Type: Salmonella typhimurium, Assay Type: Forward and reverse gene mutation, host-mediated assay, Assay Code: HMA+, Evaluation Type: Evaluation A (Pre-1980)): active; positive

O=NN1CCC(O)CC1
mutagenic call (Species/Cell Type: Drosophila melanogaster, Assay Type: Aneuploidy, partial sex chromosome loss, chromosome aberrations, Assay Code: DAPT, Evaluation Type: Evaluation A (Pre-1980)): no conclusion
mutagenic call (Species/Cell Type: Drosophila melanogaster, Assay Type: Aneuploidy, whole sex chromosome loss, chromosome aberrations, Assay Code: DACT, Evaluation Type: Evaluation A (Pre-1980)): no conclusion
mutagenic call [7]: no conclusion
mutagenic call [8]: active; positive

c1ccc2c(c1)Oc1ccccc1O2
call [5]: inactive; negative

CCC1(c2ccccc2)C(=O)N=C(O)NC1=O (stereo not drawn)
mutagenic call [7]: no conclusion
mutagenic call [2]: inactive; negative
mutagenic call (Species/Cell Type: Nonhuman, Assay Type: Sister-chromatid exchange (SCE) in vivo, Assay Code: SC3T, Evaluation Type: Evaluation B (Post-1980)): no conclusion
mutagenic call [4]: inactive; negative

O=C1c2ccccc2C(=O)c2c1ccc(O[C@@H]1O[C@H](CO)[C@@H](O)[C@H](O)[C@H]1O)c2O
mutagenic call [8]: active; positive

Clc1ccc(Oc2cc(Cl)c(Cl)cc2Cl)cc1
mutagenic call [9]: inactive; negative
mutagenic call [10]: inactive; negative
mutagenic call [6]: inactive; negative

OCCN(CCO)CCO
mutagenic call [11]: active; positive

c1ccc2c(c1)ccc1ncccc12
mutagenic call [8]: active; positive

Clc1ccc(Oc2c(Cl)cc(Cl)cc2Cl)cc1
mutagenic call [9]: inactive; negative
mutagenic call [10]: inactive; negative
mutagenic call [6]: inactive; negative

Nc1nc(-c2cc([N+](=O)[O-])c[nH]2)cs1
mutagenic call [12]: no conclusion

C#C[C@]1(O)CC[C@H]2[C@@H]3CCc4cc(O)ccc4[C@H]3CC[C@@]21C
mutagenic call [1]: active; positive
mutagenic call (Species/Cell Type: Mouse (BALB/c-3T3) cells, Assay Type: Cell transformation, Assay Code: CTB-, Evaluation Type: Evaluation A (Pre-1980)): inactive; negative
call [3]: active; positive
mutagenic call (Species/Cell Type: Syrian hamster embryo (SHE) cells, Assay Type: Cell transformation, clonal assay, Assay Code: CTC-, Evaluation Type: Evaluation A (Pre-1980)): inactive; negative

CCC(C)=O
mutagenic call (Species/Cell Type: Bacillus subtilis (H17 vs M45), Assay Type: Rec-assay, spot test, DNA effects (bacterial DNA repair), Assay Code: REWT, Evaluation Type: Evaluation A (Pre-1980)): no conclusion
mutagenic call (Species/Cell Type: Mammalian polychromatic erythrocytes, Assay Type: Micronucleus test, chromosome aberrations, Assay Code: MNT-, Evaluation Type: Evaluation B (Post-1980)): inactive; negative

COc1cc2c[n+](C)c3c4cc(OC)c(OC)cc4ccc3c2cc1OC
mutagenic call [12]: no conclusion

O=NN1CCCC1
mutagenic call (Species/Cell Type: Chinese hamster lung (V79) cells, Assay Type: Forward gene mutation at the HPRT or ouabain locus, Assay Code: V79+, Evaluation Type: Evaluation A (Pre-1980)): active; positive
call [3]: active; positive
mutagenic call (Species/Cell Type: Nonhuman, Assay Type: Sister-chromatid exchange (SCE) in vivo, Assay Code: SC3+, Evaluation Type: Evaluation B (Post-1980)): active; positive
mutagenic call (Species/Cell Type: Rat primary hepatocytes, Assay Type: Unscheduled DNA synthesis (UDS) in vitro, DNA effects, Assay Code: UDP+D, Dose Response: With dose response, Evaluation Type: Evaluation A (Pre-1980)): active; positive
mutagenic call [8]: active; positive

O=[N+]([O-])c1ccnc2ccccc12
mutagenic call (Species/Cell Type: Escherichia coli polA (W3119 vs P3478), Assay Type: Rec-assay, DNA effects (bacterial DNA repair), Assay Code: RE1-, Evaluation Type: Evaluation A (Pre-1980)): inactive; negative

CC(C(=O)O)c1ccc(C(=O)c2ccccc2)s1 (stereo not drawn)
mutagenic call (Species/Cell Type: Human lymphocytes, Assay Type: Sister-chromatid exchange (SCE) in vivo, Assay Code: SCY+, Evaluation Type: Evaluation B (Post-1980)): active; positive

Cl[Se][Se]Cl
mutagenic call (Species/Cell Type: Syrian hamster embryo (SA7/SHE) cells, Assay Type: Cell transformation, viral enhanced, Assay Code: CT7T, Evaluation Type: Evaluation A (Pre-1980)): no conclusion

CC(=O)OC[C@]12C[C@H](OC(=O)CC(C)C)C(C)=C[C@H]1O[C@@H]1[C@H](O)[C@@H](OC(C)=O)[C@@]2(C)[C@]12CO2
mutagenic call (Species/Cell Type: Bacillus subtilis (H17 vs M45), Assay Type: Rec-assay, spot test, DNA effects (bacterial DNA repair), Assay Code: REW-, Evaluation Type: Evaluation A (Pre-1980)): inactive; negative
mutagenic call [6]: inactive; negative
mutagenic call [12]: no conclusion

Cc1cc(O)ccc1C1(c2ccc(O)cc2C)OS(=O)(=O)c2ccccc21
mutagenic call [11]: active; positive

Reference: PubChem BioAssay AID1259408 (Genetic Toxicology Data Bank (GENE-TOX), 2018)
